According to patent US20110071124A1, “Compounds that Inhibit Production of sAPPB and AB and Uses Thereof” (The Trustees of Columbia University in the City of New York, priority 2008, published 2011):

Tests used:
[1] = biological target: T1, purified recombinant β-secretase (BACE1) (Homo sapiens, UniProt P56817); experiment: BACE1 FRET enzymatic assay (Invitrogen); format: biochemical; conditions: for dose-dependent inhibition of β-secretase: 3 concentrations (0.1, 1, and 10 μM); for IC50: 12 doses, read-out: enzymatic IC50 (FRET-based BACE1 assay)
T1 construct: purchased Invitrogen
T1 sequence (P56817 46-501): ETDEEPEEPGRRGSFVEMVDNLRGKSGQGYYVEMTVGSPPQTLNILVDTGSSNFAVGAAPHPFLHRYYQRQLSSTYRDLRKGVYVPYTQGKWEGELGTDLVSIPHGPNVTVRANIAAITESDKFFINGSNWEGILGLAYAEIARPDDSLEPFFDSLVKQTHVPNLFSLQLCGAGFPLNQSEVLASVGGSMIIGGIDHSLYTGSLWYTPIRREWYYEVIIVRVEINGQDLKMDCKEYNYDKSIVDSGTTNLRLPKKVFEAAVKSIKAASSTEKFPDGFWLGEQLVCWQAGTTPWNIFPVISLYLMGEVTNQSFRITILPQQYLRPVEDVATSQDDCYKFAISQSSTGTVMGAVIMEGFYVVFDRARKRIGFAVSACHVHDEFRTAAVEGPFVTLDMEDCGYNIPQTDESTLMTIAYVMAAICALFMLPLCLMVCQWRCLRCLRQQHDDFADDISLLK
Text: FIG. 10. 4 compounds reduce BACE1 activity in an enzymatic assay. To further classify the small molecule hits, a FRET-based BACE1 enzymatic assay (Invitrogen) was used to identify potential direct BACE1 inhibitors.
In other non-limiting embodiments, the effective amount of at least one compound of Formulas I-VII, and/or a compound depicted in FIG. 19, may be correlated with the compound's ability to inhibit the enzymatic activity of a BACE1 enzyme. The compound's BACE1 inhibitory effect may be assayed, for example, through use of a BACE1 FRET Assay kit (Invitrogen Corp., Carlsbad, Calif., U.S.A.), wherein the fluorescence resonance energy transfer (FRET)-based assay measures the cleavage by purified recombinant β-secretase of a peptide substrate corresponding to the BACE1 cleavage site of Swedish mutant APP. In such an assay, a greater reduction in fluorescence in the reaction mixture following incubation with a compound of the invention compared to a control cell line not contacted with the compound is correlative with the compound's therapeutic efficacy.
Because the cell-based BACE1 assay has the potential to uncover direct as well as indirect inhibitors of β-secretase, a commercial BACE1 enzymatic assay was employed to classify the small molecule hits. The BACE1 FRET Assay kit was purchased from Invitrogen and used according to the manufacturer's protocol. This fluorescence resonance energy transfer (FRET)-based assay measures the cleavage by purified recombinant β-secretase of a peptide substrate corresponding to the BACE1 cleavage site of Swedish mutant APP. The 15 LDDN hits were first tested at 3 concentrations (0.1, 1, and 10 μM) to determine if there is a dose-dependent inhibition of β-secretase.

[2] = fluorescent readout interference: BACE1 substrate standard (cleaved peptide) without BACE1 enzyme; conditions: highest of 12 concentrations
Method: Because the enzymatic assay is performed with compound in the reaction mixture (in contrast to the cell-based BACE1 assay, where the compound is washed away after antibody-mediated specific capture of sAPPβ), it is conceivable that the compound itself may interfere with the fluorescent readout of the enzymatic BACE1 assay. To explore this possibility, BACE1 substrate standard (cleaved peptide, supplied in the assay kit) was incubated with 12 concentrations of LDN-0040630, LDN-0089308, LDN-0096529, and LDN-0091841 in the absence of BACE1 enzyme.

[3] = tested on: sAPPβ (BACE1 cleavage of SEAP-APPwt) in SY5Y-BACEGFP-SEAPAPPwt cells; experiment: cell-based BACE1 assay (sAPPβ modified ELISA); conditions: for IC50: 12 concentrations 0.1 nM to 30 μM, 96-well format (FIG. 8), read-out: cell-based IC50 (sAPPβ), 12-point dose-response
Method: FIG. 1. An sAPPβ assay utilized to identify inhibitors of BACE1. The assay utilizes SY5Y cells stably overexpressing BACE-GFP and SEAP-APPwt. Cells are incubated with a candidate compound for 6 hours prior to harvesting media. BACE1-mediated cleavage of APP results in the release of sAPPβ into the media. α-secretase, a competing enzyme that is non-amyloidogenic, also cleaves APP to release […]. Using an sAPPβ-specific antibody (sβwt), SEAP-sAPPβ is specifically captured in a modified ELISA assay. Detection is achieved by addition of the fluorescent alkaline phosphatase substrate, 4-methylumbelliferyl phosphate (4-MUP).
(§1) FIG. 13. […] Compounds were tested in SY5Y-BACEGFP-SEAPAPPwt cells using the cell-based BACE1 assay. Select compounds were also investigated for Aβ-lowering effect using a commercial Aβ ELISA kit (BioSource). All compounds were tested at 8 concentrations (30, 10, 3, 1, 0.3, 0.1, 0.03, and 0.01 μM), and data points were analyzed with Origin software and fitted using a logistic model for IC50 determination.
As described in the Examples below, and depicted in FIG. 1, an sAPPβ ELISA assay may comprise cells, for example, SY5Y cells, transfected with a BACE1 reporter construct, such as a GFP-tagged BACE1 (BACE-GFP), and a wild type APP reporter construct, such as a secreted alkaline phosphatase (SEAP)-tagged wild type APP (SEAP-APPwt). BACE1 cleavage of the reporter-tagged APP (e.g. SEAP-APPwt) may result in secretion into the media of SEAP-tagged sAPPβ, which may be collected and specifically captured using an sAPPβ cleavage site-specific antibody (e.g. stβwt). Following washing, a substrate may be used, for example, the fluorescent alkaline phosphatase substrate 4-methylumbelliferyl phosphate (4-MUP), to detect the captured SEAP-sAPPβ.
A cell-based modified ELISA assay for measuring sAPPβ, the secreted ectodomain of β-amyloid precursor protein (APP) following β-secretase (BACE1) cleavage, was used to identify a class of compounds that interfered with the first step of sAPPβ generation. This assay has been described in International Application PCT/US2007/015938 (Published as International Publication No. WO 08/008463), which is herein incorporated in its entirety for all purposes.
The SY5Y-BACEGFP-SEAPAPPwt cell based assay was developed to discover novel small molecule modulators of BACE1 activity. SY5Y cells were stably transfected with GFP-tagged BACE1 (BACE-GFP) and secreted alkaline phosphatase (SEAP)-tagged wildtype APP (SEAP-APPwt). BACE1 cleavage of SEAP-APPwt results in secretion into the media of SEAP-tagged sAPPβ, which is collected and specifically captured using an sAPP0 cleavage site-specific antibody (sβwt). After washing, the fluorescent alkaline phosphatase substrate 4-methylumbelliferyl phosphate (4-MUP) is used to detect the captured SEAP-sAPPβ (FIG. 1).
The 15 LDDN compounds selected based on their 3-point dose-response profile were tested at 12 concentrations (ranging from 0.1 nM to 30 μM) in the cell-based BACE1 assay. The assay was conducted in 96-well format to maximize the Z′ factor. Compounds were characterized in duplicate cell plates, each containing 12 doses of compound in triplicate. Cell viability was measured at 6 and 24 hours using Promega's Cell Titer-Glo kit according to the manufacturer's protocol. The dose-response curves for sAPPβ reduction were plotted using Origin software and fitted using a logistic model for IC50 determination.
(§2) 27 structural analogs of LDN-0057228 were synthesized and tested using the cell-based BACE1 assay in SY5Y-BACEGFP-SEAPAPPwt cells (FIG. 13). 4 analogs, in addition to the parent compound, were also assessed for Aβ40 lowering activity using a commercial Aβ kit (BioSource). Because LDN-0057228 resembles CNS monoamine transporter inhibitors, this analog series was given the designation “CNS.” LDN-0057228 gave an unexpectedly low potency (IC50˜20 μM for both sAPPβ and Aβ40 reduction) compared to the ˜7 μM potency obtained using the same compound in FIG. 8.

[4] = tested on: Aβ40 in Lenti-APPsw infected primary cortical neurons; experiment: Aβ40 ELISA in Lenti-APPsw infected primary cortical neurons; format: cell-based, mouse; conditions: 24 hours
Method: FIG. 15A-D. LDN-0057228 reduces Aβ40 and sAPPβ in primary neurons. DIV-14 primary cortical neurons from wild-type mice were incubated for 24 hours with primary culture media containing lentivirus harboring APPsw. After infection, neurons were incubated for 48 hours with 1:1 fresh to conditioned media to allow for APP expression. Neurons were then treated with LDN-0057228 at 20 μM for 24 hours in triplicate. A) Media was collected for Aβ40 ELISA. Raw Aβ40 values were normalized to APP to control for variations in lentiviral infection efficiency. B) Cell lysates were probed with 6E10 antibody to visualize the transduced full-length APP. C) sAPPβ from neuron culture media was immunoprecipitated with sβsw antibody and probed with LN27. D) Quantification of sAPPβ, normalized to APP. Data in A) and […]) represent mean+s.d. of 3 wells. Bands from B) and C) were quantified using ImageJ software.
FIG. 16A-B. CNS-2 and LDN-0057228 reduce Aβ40 in primary neurons. DIV-14 primary cortical neurons from wild-type mice were incubated for 24 hours with primary culture media containing lentivirus harboring APPsw. After infection, neurons were incubated for 48 hours with 1:1 fresh to conditioned media to allow for APP expression. Neurons were then treated for 24 hours with the indicated compound and concentration. A) Media was collected for Aβ40 ELISA. Raw Aβ40 values were normalized to APP to control for variations in lentiviral infection efficiency. B) Cell lysates were probed with 6E10 antibody to visualize the transduced full-length APP.
Lenti-APPsw infected primary cortical neurons were selected for the initial round of physiological experiments due to the relatively large batches of wild-type primary cortical neurons that were routinely harvested in the lab, the ease of lentiviral packaging. Primary cortical neurons were harvested from wild-type P0 pups using established protocols.
The Lenti-APPsw vector was co-transfected into HEK293 T cells with ViraPower packaging mix (Invitrogen) to generate the lentivirus. Lentiviral-mediated transduction of APPsw in primary neurons was performed by adding neuron primary culture media containing the lentiviral particles to wild-type DIV-14 primary neurons (FIG. 14). After 24 hours, neurons were incubated with media for 72 hours prior to collecting for Aβ40 measurement. Two batches of virus (LV-1 and LV-2) were tested, showing that there is batch-to-batch variation in the viral titer.
Using this experimental paradigm, LDN-0057228 was tested at 20 μM concentration to confirm the sAPPβ- and Aβ-lowering activity of the compound (FIG. 15). The protocol was modified slightly to allow for 24-hour compound treatment. […]

[5] = tested on: Aβ40 in SY5Y-BACEGFP-SEAPAPPwt cells; experiment: Aβ40 ELISA (BioSource) in SY5Y-BACEGFP-SEAPAPPwt cells; format: cell-based; conditions: 4 concentrations (30, 10, 3, 0.3 μM), 6 hours
Method: FIG. 11. 5 LDDN compounds reduce Aβ40 in SYSY-BACEGFP-SEAPAPPwt cells. sAPPβ and 24-hour cell viability was performed as described in Chapter 4.1. Aβ40 ELISA was performed using the Aβ40 ELISA kit (BioSource) according to the manufacturer's protocol. Cell culture media was collected after 6 hours of treatment with 4 concentrations (30, 10, 3, 0.3 μM) of compound and diluted 3:10 prior to loading onto the Aβ ELISA plate. The data points for sAPPβ and Aβ were roughly superimposed. Data points represent mean±s.d. of 3 determinations.
as §1
In other non-limiting embodiments, the effective amount of at least one compound of Formulas I-VII, and/or a compound depicted in FIG. 19, may be correlated with the compound's ability to reduce the level of Aβ40 in an in vitro assay that measures the level of Aβ40 produced in a cell line, for example, an SY5Y-BACEGFP-SEAPAPPwt cell line. In one non-limiting example, the level of Aβ40 expressed by the cell line may be measured through the use of an Aβ40 Elisa kit (Bio Source). In one embodiment, the assay comprises incubating the Aβ40 expressing cells with a compound of Formulas I-VII, and/or a compound depicted in FIG. 19, followed by assaying the concentration of Aβ40 in the cell media. In such an assay, a greater reduction of Aβ40 concentration in the cell media following incubation with a compound compared to a control cell line not contacted with the compound is correlative with the compound's therapeutic efficacy.
The 15 LDDN compounds were tested in SY5Y-BACEGFP-SEAPAPPwt cells for their ability to reduce Aβ40 using a commercial Aβ40 ELISA kit (BioSource). SY5Y-BACEGFP-SEAPAPPwt cells were grown to 100% confluence and incubated with 4 concentrations of each compound (30, 10, 3, 0.3 μM). Cell culture media was collected after 6 hours of compound incubation and diluted 3:10 in sample diluent supplied in the Aβ40 ELISA kit. Aβ ELISA was performed according to the manufacturer's protocol. […] LDN-0057228 and LDN-0069630 are small molecules with ample chemical space for modification, and are thus considered good candidates for medicinal chemistry.
as §2

[6] = tested on: SY5Y-BACEGFP-SEAPAPPwt cells; conditions: tagged-triazine hits, 10 μM
Method: Of the 147 hits selected during the primary screen, 139 were retested in a 3-point dose-response (10, 2, 0.2 μM) confirmatory screen. BACE1 assay was performed as described, and cell viability was determined by Cell Titer AQeous One cell proliferation assay (Promega). Representative data from four compounds are shown. Data points represent mean±s.d. of four determinations.
The primary screen for the nearly 3,000-compound tagged-triazine library was conducted in 96-well format by hand. Compounds were supplied in powder form in 96-well polypropylene plates. The compounds were first dissolved in DMSO to generate 10 mM stock plates, then stamped onto new polypropylene plates to make 1 mM working stock solution. For assay, 1 mM working stock solution was diluted 1:100 into cell culture media for a final concentration of 10 μM. […] Negative (DMSO) and positive (BACE inhibitor IV at 10 μM) controls were included on every screening plate in triplicate for quality control and calculation of Z′ factors.
The 144 hits from the primary screen were rescreened in triplicate at 10 μM to confirm the activity and to assess cytotoxicity.
Of the 147 hits from the primary screen, 139 were retested for 3-point dose-response at 10, 2, and 0.2 μM concentrations in quadruplicate. […] The compounds were simultaneously evaluated for cytotoxicity using the Cell Titer AQueous One cell proliferation assay (Promega). […]

[7] = 10 μM, triplicate rescreen of tagged-triazine hits

With `Oc1cc(-c2ccccc2)nn1-c1nc2ccccc2[nH]1` [LDN-0089308] the “dose-dependent inhibition of β-secretase” value [1] was “exhibited a dose-dependent effect”, the IC50 [1] was 2140 nM and the “maximal inhibition of the fluorescence signal in the absence of BACE1 enzyme” value [2] was 25%. It also gave an IC50 [3] of 3050 nM.
With `COc1ccccc1C(=O)Nc1nc2ccccc2n1CCOc1ccccc1` [LDN-0091841] the “dose-dependent inhibition of β-secretase” value [1] was “exhibited a dose-dependent effect”, the IC50 [1] was 5150 nM and the “maximal inhibition of the fluorescence signal in the absence of BACE1 enzyme” value [2] was 25%. The IC50 [3] was 2610 nM.
In the case of `CS(=O)(=O)c1nnnn1-c1ccccc1Cl` [LDN-0069630], the “reduction in Aβ40” value ([4]; 10 μM) is reported as 15%, the “reduction in Aβ40” value ([4]; 15 μM) is reported as 40% and the “dose-dependent decrease in Aβ40” value [5] is reported as “caused a dose-dependent decrease in Aβ40”.
In the case of `NCCOCCOCCNC(=O)c1ccc(CNc2nc(NCC3CCCCC3)nc(N3CCCCC3)n2)cc1` [AM-D-E4], the “effect on cell viability” value [6] is reported as “did not affect cell viability” and the “increase in sAPPβ” value [3, 7] is reported as 36%.
In the case of `NCCOCCOCCNc1nc(N2CCCC2)nc(N2CCN(c3ccc([N+](=O)[O-])cc3)CC2)n1` [TG-CD-D7], the “effect on cell viability” value [6] is reported as “did not affect cell viability” and the “inhibition of sAPPβ” value [3, 7] is reported as 43%.
